Patent US11679113B2, “Anticancer treatment for uveal melanoma” (The Regents of the University of California, priority 2019, dated 2023)
Entries after “also recorded” stand apart in the source; their conditions may differ. Numbered stars: 1 amine (or outer) side, 2 acyl side, 3 side chain; on linkers, the order of the positions; unused ones are H or OH. Bridge positions count the residues as written; N and C are the ends. Square brackets hold non-standard residues; d marks the D form. Peptide text beside a SMILES is read from it. * marks the point of attachment. Leu(3R-OH,Nα-propionyl) = CCC(=O)N[C@H](C(=O)*)[C@H](O)C(C)C; X1 = CC(C)[C@@H](O[*:3])[C@H](N[*:1])C(=O)[*:2]; NMeT = CN[C@H](C(=O)O)[C@@H](C)O; dPhLac = O=C(O)[C@H](O)Cc1ccccc1; NMeA = CN[C@@H](C)C(=O)O; NMeDha = C=C(NC)C(=O)O

What was measured:
OM cells = assay: FAKi/MEKi combination cell viability, synergy by Chou-Talalay CI and Bliss score; type: cell-based, human
Excerpt: Applicant performed detailed combinatorial analysis achieving ERK pathway inhibition by a clinical MEK inhibitor, trametinib, combined with FAKi (VS-4718) at a series of dilutions of drug combinations. Drug combinations scored as synergistic (i. e., > than additive) are identified by using the most widely used methodologies: the Chou-Talalay combination index (CI) (Chou, 2010; Chou, 1984; and Chou, 2006) and the Bliss independence score (ΔBliss) (Chou, 2010; Chou, 2006; Berenbaum, 1989; Greco, 1995; and Geary, 2013) as Applicant recently described (Yamaguchi et al., 216).

[1] = system: UM cell lines (92.1, OMM1.3, OMM1.5, Mel270, Mel202; GNAQ mutant); assay: Cell viability assay (Alamar Blue) in UM cell lines; type: cell-based, human
Procedure: (§1) HEK293 and HEK293T cells were cultured in DMEM (Sigma-Aldrich Inc., MO) containing 10% FBS (Sigma-Aldrich Inc., MO) and 1× antibiotic/antimycotic solution (Sigma-Aldrich Inc., MO). Culture conditions for UM cells (OMM1.3, OMM1.5, MEL202, Mel270 and 92.1) have been described elsewhere (Schmitt et al., 2007; Zuidervaart et al., 2005). SK-MEL-28 cells were purchased from ATCC and cultured following ATCC recommendations in EMEM containing 10% FBS. VS-4718 (PND-1186) was purchased from MedChemExpress (MCE) pre-prepared as a 10 mM solution in DMSO. FR900359 (FR) was graciously supplied by the lab of Dr. Evi Kostenis.
(§2) Cell growth assays were performed as described previously (Yamaguchi et al., 2016). Cells were cultured in 96-well-plate and treated with drugs for 72 hr. The manufacturer's instructions of Alamar Blue Cell Viability Reagent were followed to complete the assay.

[2] = system: SK-MEL-28 cells (BRAF mutant SKCM); assay: Cell viability assay in SKCM control cell line; type: cell-based, human
Procedure: as §1, §2

FAK [3] = assay: Immunoblot of FAK phosphorylation (pY397-FAK) in UM cells; type: cell-based, human; conditions: OMM1.3 / Mel270 cells
Procedure: (§3) Western blot assays were performed as described previously (Feng et al., 2014b). Western blots were developed using Immobilon Western Chemiluminescent HRP substrate (Millipore, MA) according to the manufacturer's instructions.

ERK [4] = assay: Immunoblot of ERK phosphorylation in UM cells; type: cell-based, human; conditions: OMM1.3 cells
Procedure: as §3

FAK [5] = assay: Immunoblot of FAK phosphorylation in Gαq-DREADD expressing HEK293 cells stimulated with CNO; type: cell-based, human; conditions: CNO stimulation, 1 hr pre-treatment
Procedure: as §3

ERK [6] = assay: Immunoblot of ERK phosphorylation in Gαq-DREADD expressing HEK293 cells stimulated with CNO; type: cell-based, human; conditions: CNO stimulation, 1 hr pre-treatment
Procedure: as §3

OMM1.3 cells [7] = assay: Colony formation assay in semisolid media (3D culture); type: cell-based, human; conditions: OMM1.3, semisolid media
Procedure: 3-dimensional cultures were performed as described previously (Tancioni et al., 2015). Briefly, 10,000 cells were embedded in 1% methylcellulose diluted in growth media and plated onto 6-well poly-hydroxyethyl methacrylic acid (poly-HEMA)-coated plates.

OMM1.3 cells [8] = assay: Immunoblot of cleaved PARP (apoptosis) in UM cells; type: cell-based, human; conditions: OMM1.3, 36 hr
Procedure: as §3

YAP-signature genes = assay: RNA-seq and Gene Set Enrichment Analysis of UM cells treated with FAKi; type: cell-based, human; conditions: OMM1.3, 1 μM, 2 hr
Excerpt: FAK is at the intersection of multiple signaling pathways that promote cancer progression (Sulzmaier et al., 2014), but it is not clear which downstream targets of FAK play a critical role in UM. As an approach to identify key downstream targets of the Gαq− FAK signaling axis, Applicant performed transcriptomic RNA-sequencing on UM cells treated with FAKi (i.e., FAK inhibitor), and performed Gene Set Enrichment Analysis (GSEA) (Subramanian et al., 2005) to characterize the transcriptional effects of inhibiting Gαq and FAK at the pathway level using over 10,000 gene sets from the MSigDB (Molecular Signatures Database), including two sub-collections of oncogenic signatures and hallmark gene sets that Applicants added to the database (Liberzon et al., 2015). […] These include the downregulation of genes described as stimulated by KRAS and EGFR and cytokines such as IL21 and IL15, consistent with the likely role in the activation of growth promoting pathways by FAK (Sulzmaier et al., 2014). […] In both cases, FAK inhibition or knockdown reduced YAP pY357 and increased pS127, and reduced mRNA levels of YAP targets and YAP activity measured by luciferase reporter assay (FIGS. 7A-7E), similar to UM cells.

[9] = system: YAP-target genes CTGF and CYR61; assay: qPCR of YAP-target genes CTGF and CYR61 in UM cells; type: cell-based, human; conditions: 1 μM, 2 hr
YAP = YAP nuclear/cytoplasmic localization (immunofluorescence, fractionation western blot) in UM cells; type: cell-based, human; conditions: OMM1.3, 1 μM
Procedure: Cells cultured on coverslips were washed with PBS, fixed with 3.7% formaldehyde in phosphate-buffered saline (PBS) for 30 min, and permeabilized using 0.05% Triton X-100 for 10 min. Fixed cells were blocked with 3% FBS-containing PBS for 30 min, and incubated with YAP (Cell signaling technology, MI) antibody (in 3% FBS-PBS otherwise stated) for 1 hr at room temperature. The reaction was visualized with Alexa-labeled secondary antibodies (Invitrogen, CA). Samples were mounted in PBS buffer containing Hoechst 33342 (Molecular Probes, OR) for nuclear staining. Images were acquired with an Axio Imager Z1 microscope equipped with ApoTome system controlled by ZEN 2012 software (Carl Zeiss, NY).
Subcellular fractionated lysates were generated using NE-PER Nuclear and Cytoplasmic Extraction Reagents (Thermo Scientific, CO) following manufacturer instructions.

[10] = system: Hippo pathway components (YAP, LATS1, MOB1, MST1); assay: Immunoblot / immunoprecipitation of YAP and Hippo pathway components in UM cells; type: cell-based, human
Procedure: as §3
Cells were lysed with IP lysis buffer [10 mM Tris-Cl (pH 8.0), 150 mM NaCl, 1 mM EDTA, 0.3% CHAPS, 50 mM NaF, 1.5 mM Na3VO4, protease inhibitor (Thermo Scientific, CO), 1 mM DTT, 1 mM PMSF], and centrifuged at 16,000 g for 5 min at 4° C. Supernatants were incubated with first antibody for 1 hr at 4° C., and protein G or protein A conjugated resin for another 1 hr. Resins were then washed 3 times with lysis buffer and boiled in SDS-loading buffer.

UM tumor xenografts = assay: Human UM tumor xenografts (Mel270, OMM1.3) with VS-4718 in vivo treatment; design: species or system mice
Procedure: All animal studies were carried out according the University of California San Diego (UCSD) Institutional Animal Care and Use Committee (IACUC)-approved protocol (S15195). Female NOD.Cg-Prkdcscid Il2rgtm1wjl/SzJ mice (commonly known as […], Jackson Laboratory, Maine), 6 to 8 weeks of age and weighing 18 to 20 g, were used in the study of UM cells, housed in appropriate sterile filter-capped cages, and provided food and water ad libitum. All procedures were essentially as previously described (Feng et al., 2014b; Schrage et al., 2015; Vaque et al., 2013). Briefly, exponentially growing cultures were harvested, washed, resuspended in RPMI 1640, and 2×10^6 viable cells were transplanted subcutaneously into the flanks of mice. For tumor growth analysis, tumor volume was assessed as [(LW^2/2); where L and W represent the length and the width of the tumor]. The animals were monitored twice weekly for tumor development. Results of animal experiments were expressed as mean±SEM of a total of tumors analyzed. To administer VS-4718 (Verastem Oncology; Needham, Mass.) to mice, 10 mg/ml VS-4718 was prepared in 0.5% carboxymethyl cellulose (CMC) (C5678, Sigma-Aldrich; St. Louis, Mo.) 0.1% Tween 80 (P1754, Sigma Aldrich; St. Louis, Mo.) in sterile water, 100 mg/kg administered via oral gavage twice daily, control group was treated with vehicle.
The following antibodies were used for immunohistochemistry anti-Ki67 (DAKO) and anti-YAP (CST). Unstained 5 μm paraffin sections were dewaxed in Safeclear II (Fisher Scientific, PA), hydrated through graded alcohols and distilled water, and washed three times with PBS. Antigens were retrieved using or 10 mM citrate buffer boiled in a microwave for 20 min (2 min at 100% power and 18 min at 10% power). The slides were allowed to cool down for 30 min at room temperature, rinsed twice with PBS, incubated in 3% hydrogen peroxide in PBS for 10 min to quench the endogenous peroxidase. […]

92.1 xenograft = assay: 92.1 OM xenografts treated with MEKi, FAKi or both; type: in vivo, mice; conditions: 92.1 xenografts; trametinib 1 mg/kg QD i.p., VS-4718 50 mg/kg BID p.o.
Excerpt: FIGS. 17A and 17B show potent antitumoral and cytotoxic effects of FAKi/MEKi combination in OM xenografts. […] (FIG. 17B) Quantification of IHC tumor sections stained for BrdU, cleaved-caspase3 (Cl-Casp3), pERK1/2, and YAP. For each panel, the bars from left to right are control, MEKi, FAKi and MEKi+FAKi. Data are mean±SEM (7 mice/group), *p<0.05;**p<0.01; ***p<0.001; n. s. not significant.

[11] = after prolonged use; cited from earlier work

Compound: CNS(=O)(=O)Nc1nccc(Cc2c(C)c3ccc(Oc4ncccn4)cc3oc2=O)c1F [CH5126766]
- synergy of growth inhibition in combination with FAKi VS-4718 (OM cells; combined with VS-4718): synergistic anti-proliferative effects
- synergy of anti-proliferative effect in combination with VS-6063 (defactinib) (OM cells; combined with VS-6063): synergistic anti-proliferative effects

Compound: C=C1C(=O)N[C@@H](C)C(=O)N(C)[C@@H](C)C(=O)N[C@@H]([C@H](OC(=O)[C@@H](NC(=O)CC)[C@H](O)C(C)C)C(C)C)C(=O)N(C)[C@@H]([C@@H](C)OC)C(=O)O[C@H](C(C)C)[C@H](NC(C)=O)C(=O)O[C@H](Cc2ccccc2)C(=O)N1C [FR900359] (Ac-[X1][dPhLac][NMeDha]A[NMeA][X1](Leu(3R-OH,Nα-propionyl))[NMeT](Me); ester 1-C)
- UM cell viability / proliferation, result in words ([1]; UM cell lines): inhibition of cell proliferation
- SKCM cell proliferation, result in words [2]: only in UM cells
- FAK activation (pY397-FAK) in UM cells (FAK [3]): diminished
- ERK activation in UM cells (ERK [4]): diminished

Compound: COc1ccc2c(c1)CC[C@@H]1[C@@H]2CC[C@]2(C)[C@@H](NCCCCCCN3C(=O)C=CC3=O)CC[C@@H]12 [U73122]
- FAK activation by Gαq-DREADD in HEK293 cells (FAK [5]): did not have an impact
- ERK activation by Gαq-DREADD in HEK293 cells (ERK [6]): abolished

Compound: CNC(=O)c1ccccc1Nc1cc(Nc2ccc(N3CCOCC3)cc2OC)ncc1C(F)(F)F [VS-4718]
- EC50 ([1]; Homo sapiens, 92.1, OMM1.3, OMM1.5, Mel270, Mel202, 72 hr, read-out: EC50, sensitivity of UM cell lines to FAK inhibition (cell viability)): ~1000 nM
- EC50 ([2]; Homo sapiens, SK-MEK-28 (BRAF mutant), control): > 10000 nM
- colony formation ability of UM cells (OMM1.3 cells [7]): nearly abolished the colony formation ability
- cleaved PARP (UM apoptosis) (OMM1.3 cells [8]): accumulation of cleaved PARP; also recorded: increased cleaved PARP
- FAK activation (pY397-FAK) in UM cells (FAK [3]): inhibited FAK rapidly; also recorded: decrease in pY397-FAK
- expression of YAP-signature genes (RNA-seq, GSEA) (YAP-signature genes): significant downregulation
- mRNA of YAP-target genes CTGF and CYR61 (qPCR) [9]: significant reduction
- YAP nuclear accumulation (YAP): clearly diminished
- MOB1/LATS interaction [10]: enhanced
- p909-LATS1 [10]: increase
- p1079-LATS1 [10]: increase
- p-MST1 [10]: did not observe an increase
- pY26 MOB1 ([10]; 0-10 μM, 2 hr): dose-dependent decrease
- YAP phosphorylation on serine 127 (pS127-YAP) ([10]; listed as FAKi): increase
- YAP phosphorylation on tyrosine 357 (Y357) ([10]; listed as FAKi): repressed; also recorded: diminished phosphorylation
- total YAP protein level ([10]; long-term (up to 36 hours)): downregulation
- cytoplasmic retention of YAP in tumors (UM tumor xenografts; Mel270 tumors): clearly increased
- cell proliferation in UM tumors (Ki67) (UM tumor xenografts; two UM tumor models (Mel270, OMM1.3)): reduces
- UM tumor size (UM tumor xenografts; two UM tumor models (Mel270, OMM1.3), 100 mg/kg oral gavage twice daily): reduces
- antitumoral profile in OM xenografts (cl-Casp3) (92.1 xenograft): cytostatic profile

Compound: C[C@@H](N)[C@H]1CC[C@H](C(=O)Nc2ccncc2)CC1 [Y-27632]
- FAK activation (pY397-FAK) in UM cells (FAK [3]): repressed FAK activation
- FAK activation by Gαq-DREADD in HEK293 cells (FAK [5]): repressed FAK activation

Compound: Cc1ccc2c(c1)C(=O)C1(O)CCN(c3ccccc3)C1=N2 (stereo not drawn) [blebbistatin]
- FAK activation (pY397-FAK) in UM cells (FAK [3]): repressed FAK activation
- FAK activation by Gαq-DREADD in HEK293 cells (FAK [5]): repressed FAK activation

Compound: verteporfin
- systemic toxicity [11]: high systemic toxicities
